Experimental data from US6887981B2, “Natural antibacterial peptide, the nucleotide sequence encoding it and the use thereof” (Shanghai CAS Shenglonda Biotech (Group) Co., Ltd., priority 2002, dated 2005).

Experiments:
[1] = EDS rat model, androgen (serum testosterone) level after EDS injection; type: in vivo, Sprague-Dawley rat; conditions: adult rat, intraperitoneal EDS 7.5 mg/100 g bodyweight; restored in about two weeks
Description: The “▴” line represents rat serum testosterone level at various time intervals after EDS injection. The “♦” line represents rat Bin1b expression changes which are calibrated by 18s level.
Adult Sprague-Dawley was intraperitoneally injected with EDS (7.5 mg/100 g bodyweight) in DMSO-H2O (1:3, v/v). The rats were sacrificed on day 1, 3, 7, 14, 21, 28 and 42. The rat without EDS injection served as the negative control. 20 ug total RNA was extracted from rat caput epididymis, fractionated by 1.2% formaldehyde agarose gel electrophoresis, blotted onto Hybond-N+ membrane and hybridized with a probe located at Bin1b cDNA 3′ terminal and 18s ribosome RNA probe.

E. coli = assay: Antimicrobial activity of secretions of primary epididymal epithelial cultures, CFU counting; type: cell-based; conditions: concluded from caput culture secretions and antisense block
Description: FIG. 7A. […] 100 colony forming units (CFU) of E. coli was added to cultures 16 hours prior to examination.
A total of 100 colony-forming units (CFU) of E. coli was added to the apical compartment of the epithelial cells separately from caput epididymis and cauda epididymis. The medium was collected 16 hours later for CFU counting.

Molecule: CS(=O)(=O)OCCOS(C)(=O)=O [EDS, Ethylene Dinethamesulfonate]
- secretion of androgen after EDS injection [1]: decreased immediately

B1: Bin1b: natural antibacterial peptide of beta-defensin family expressed in rat caput epididymidis; SEQ ID NO:2, mature form SEQ ID NO:3 (protein, listed as Homo sapiens)
chain: MKVLLLFAVFFCLVQRNSGDIPPGIRNTVCFMQRGHCRLFMCRSGERKGDICSDPWNRCCVSSSIKNR
modifications: ends and bridges not checked
- antimicrobial activity of Bin1b (E. coli): antimicrobial activity
